Reference: PMC9021288 (Nature Communications, 2022)
Where “and” joins values, the source holds several entries; their conditions need not be identical. Equal entries are not always repeated. Where two headings read alike, the source gives them in different places.

Assays:
P. falciparum Dd2-B2 = assay: 72-h flow cytometry IC50 assay, Dd2-B2 and resistant Dd2-B2; assay type: cell-based, Plasmodium falciparum
Description: Replication assays were performed using a SYBR Green method as described previously. Briefly, asynchronous parasites were diluted to 0.83% parasitemia, 3% hematocrit in 30 µl medium, and added to 30 µl of diluted compounds in medium (0.1% DMSO final concentration) in black 384-wells plates. After a 72-h incubation, 30 µl of SYBR Green diluted in lysis buffer was added according to the manufacturer’s protocol (Life Technologies). Fluorescence intensity was measured on a BioTek Synergy 2 Plate Reader after 1-h incubation and was normalized to a DMSO control (100% growth) and DHA- or epoxomicin-treatment (no growth). […] Parasite survival was assessed by flow cytometry on an Accuri C6 (BD Biosciences) with BD C6 Plus software using SYBR Green and MitoTracker Deep Red FM (Life Technologies) as nuclear stain and vital dye, respectively, and data were analyzed using FlowJo (10.5.0). […] Luminescence was measured after 72 h using the Renilla-Glo(R) Luciferase Assay System (Promega E2750) and the GlomAX® Discover Multimode Microplate Reader (Promega). The luminescence values were normalized to DMSO vehicle (100% growth) and 200 nM chloroquine-treated (no growth) samples as controls.

Renal excretion in dogs = assay type: in vivo, dog; conditions: for Concentration (ng/ml) in urine: dog urine, individual dogs 1-3
Description: A blood sample from the saphenous vein was collected into heparinized capillary tubes at multiple intervals between 0.25 and 24 h after dosing. Subsequently, samples were spun down at 1640 g for 5-10 min at 4 °C within 30 min after collection and plasma was collected. […] Urine was collected following an intravenous dose in both rat and dog, allowing renal clearance to be estimated. Human renal clearance was estimated from dog renal clearance as previously described[40] and other human PK parameters were predicted using allometric scaling and/or in vitro clearance data. PK parameters were calculated by naïve pooled approach using WinNonLin software (Phoenix, version 6.3).

C[C@@H](CNC(=O)[C@H](O)C(C)(C)CO)NC(=O)c1cc(F)c(F)cc1F [MMV693183]
IC50 shift (P. falciparum Dd2-B2; 1x10^9 Dd2-B2 selected at 12-27 nM): 13 x | Parasite growth, dose-response (No drug = 100) (P. falciparum Dd2-B2; Dd2-B2, Log concentration (M) -8.61866): 46.9671 and 65.9341 and 69.186 and 60.7743 | Parasite growth, dose-response (No drug = 100) (P. falciparum Dd2-B2; Dd2-B2, Log concentration (M) -8.91969): 65.3709 and 69.9634 and 65.2132 and 74.7261 | Parasite growth, dose-response (No drug = 100) (P. falciparum Dd2-B2; Dd2-B2, Log concentration (M) -9.22072): 72.0216 and 80.9524 and 81.3953 and 76.7714 | Parasite growth, dose-response (No drug = 100) (P. falciparum Dd2-B2; Dd2-B2, Log concentration (M) -9.52175): 91.6867 and 88.6447 and 91.0853 and 95.8364 | Parasite growth, dose-response (No drug = 100) (P. falciparum Dd2-B2; Dd2-B2, Log concentration (M) -9.82278): 93.0054 and 90.8425 and 98.7403 and 95.3251 | IC50 (P. falciparum Dd2-B2; Dd2-B2, read-out: IC50): 1.79 nM and 2.73 nM and 3.55 nM and 3.05 nM | IC50 (P. falciparum Dd2-B2; Dd2-B2, read-out: mean IC50): 3 nM | Parasite growth, dose-response (No drug = 100) (P. falciparum Dd2-B2; FL1, Log concentration (M) -7.11351): 0 | Parasite growth, dose-response (No drug = 100) (P. falciparum Dd2-B2; FL1, Log concentration (M) -7.41454): 70.2458 and 55.9122 | Parasite growth, dose-response (No drug = 100) (P. falciparum Dd2-B2; FL1, Log concentration (M) -7.71557): 80.5951 and 111.824 | Parasite growth, dose-response (No drug = 100) (P. falciparum Dd2-B2; FL1, Log concentration (M) -8.0166): 100 and 101.689 | Parasite growth, dose-response (No drug = 100) (P. falciparum Dd2-B2; FL1, Log concentration (M) -8.31763): 93.5317 and 96.6216 | Parasite growth, dose-response (No drug = 100) (P. falciparum Dd2-B2; FL1, Log concentration (M) -8.61866): 96.119 and 101.689 | Parasite growth, dose-response (No drug = 100) (P. falciparum Dd2-B2; FL1, Log concentration (M) -8.91969): 78.0078 and 118.581 | Parasite growth, dose-response (No drug = 100) (P. falciparum Dd2-B2; FL1, Log concentration (M) -9.22072): 94.8254 and 105.068 | Parasite growth, dose-response (No drug = 100) (P. falciparum Dd2-B2; FL1, Log concentration (M) -9.52175): 101.294 and 83.1081 | Parasite growth, dose-response (No drug = 100) (P. falciparum Dd2-B2; FL1, Log concentration (M) -9.82278): 85.7697 and 115.203 | IC50 (P. falciparum Dd2-B2; FL1, read-out: IC50): 44.2 nM and 38.8 nM | Parasite growth, dose-response (No drug = 100) (P. falciparum Dd2-B2; FL2, Log concentration (M) -7.11351): 0 | Parasite growth, dose-response (No drug = 100) (P. falciparum Dd2-B2; FL2, Log concentration (M) -7.41454): 60.4288 and 62.4542 | Parasite growth, dose-response (No drug = 100) (P. falciparum Dd2-B2; FL2, Log concentration (M) -7.71557): 82.846 and 84.7985 | Parasite growth, dose-response (No drug = 100) (P. falciparum Dd2-B2; FL2, Log concentration (M) -8.0166): 96.8811 and 77.6557 | Parasite growth, dose-response (No drug = 100) (P. falciparum Dd2-B2; FL2, Log concentration (M) -8.31763): 88.499 and 88.6447 | Parasite growth, dose-response (No drug = 100) (P. falciparum Dd2-B2; FL2, Log concentration (M) -8.61866): 105.458 and 84.9817 | Parasite growth, dose-response (No drug = 100) (P. falciparum Dd2-B2; FL2, Log concentration (M) -8.91969): 80.5068 and 77.1062 | Parasite growth, dose-response (No drug = 100) (P. falciparum Dd2-B2; FL2, Log concentration (M) -9.22072): 101.365 and 80.4029 | Parasite growth, dose-response (No drug = 100) (P. falciparum Dd2-B2; FL2, Log concentration (M) -9.52175): 71.345 and 104.029 | Parasite growth, dose-response (No drug = 100) (P. falciparum Dd2-B2; FL2, Log concentration (M) -9.82278): 92.0078 and 88.4615 | IC50 (P. falciparum Dd2-B2; FL2, read-out: IC50): 40.7 nM and 41.7 nM | Parasite growth, dose-response (No drug = 100) (P. falciparum Dd2-B2; FL3, Log concentration (M) -7.11351): 0 | Parasite growth, dose-response (No drug = 100) (P. falciparum Dd2-B2; FL3, Log concentration (M) -7.41454): 54.4365 and 48.2063 | Parasite growth, dose-response (No drug = 100) (P. falciparum Dd2-B2; FL3, Log concentration (M) -7.71557): 83.9329 and 95.9641 | Parasite growth, dose-response (No drug = 100) (P. falciparum Dd2-B2; FL3, Log concentration (M) -8.0166): 96.6427 and 92.1525 | Parasite growth, dose-response (No drug = 100) (P. falciparum Dd2-B2; FL3, Log concentration (M) -8.31763): 96.6427 and 93.0493 | Parasite growth, dose-response (No drug = 100) (P. falciparum Dd2-B2; FL3, Log concentration (M) -8.61866): 96.1631 and 96.6368 | Parasite growth, dose-response (No drug = 100) (P. falciparum Dd2-B2; FL3, Log concentration (M) -8.91969): 103.118 and 89.9103 | Parasite growth, dose-response (No drug = 100) (P. falciparum Dd2-B2; FL3, Log concentration (M) -9.22072): 91.1271 and 102.466 | Parasite growth, dose-response (No drug = 100) (P. falciparum Dd2-B2; FL3, Log concentration (M) -9.52175): 106.954 and 82.7354 | Parasite growth, dose-response (No drug = 100) (P. falciparum Dd2-B2; FL3, Log concentration (M) -9.82278): 109.113 and 91.4798 | IC50 (P. falciparum Dd2-B2; FL3, read-out: IC50): 38.2 nM and 37.9 nM | Observed renal plasma clearance (Renal excretion in dogs; Dog): 1.0 mL/min/kg | Dose in urine (Renal excretion in dogs; Mean): 0.0332 | Total in urine (Renal excretion in dogs; Mean): 384 µg | Concentration (ng/ml) in urine (Renal excretion in dogs; interval 0 to 4 h): 2790 ng/mL and 4550 ng/mL and 7660 ng/mL | Concentration (ng/ml) in urine (Renal excretion in dogs; interval 8 to 24 h): 6890 ng/mL and 3700 ng/mL | drug eliminated in urine (Renal excretion in dogs; dogs, i.v. 1 mg/kg, dog with 170 ml urine): 8.9% | Dose in urine (Renal excretion in dogs; i.v. 1 mg/kg, total per animal 1-3, 1 mg/kg): 0.002 and 0.089 and 0.009 | Total in urine (Renal excretion in dogs; total 0-24 h per animal 1-3): 22.32 µg and 1030.9 µg and 98.8 µg
